Data published in patent US20250270172A1, “Pyrimidine Derivatives As Modulators of the 5-HT2A Serotonin Receptor Useful For The Treatment of Disorders Related Thereto” (Arena Pharmaceuticals, Inc., priority 2020, published 2025).
pKi: −log10 of the molar value.

target: 5-HT2A (Homo sapiens (Human), UniProt P28223); assay: Radioligand binding assay, [^3H]5-HT competition, 5-HT2A; conditions: not given
Sequence (P28223 whole entry): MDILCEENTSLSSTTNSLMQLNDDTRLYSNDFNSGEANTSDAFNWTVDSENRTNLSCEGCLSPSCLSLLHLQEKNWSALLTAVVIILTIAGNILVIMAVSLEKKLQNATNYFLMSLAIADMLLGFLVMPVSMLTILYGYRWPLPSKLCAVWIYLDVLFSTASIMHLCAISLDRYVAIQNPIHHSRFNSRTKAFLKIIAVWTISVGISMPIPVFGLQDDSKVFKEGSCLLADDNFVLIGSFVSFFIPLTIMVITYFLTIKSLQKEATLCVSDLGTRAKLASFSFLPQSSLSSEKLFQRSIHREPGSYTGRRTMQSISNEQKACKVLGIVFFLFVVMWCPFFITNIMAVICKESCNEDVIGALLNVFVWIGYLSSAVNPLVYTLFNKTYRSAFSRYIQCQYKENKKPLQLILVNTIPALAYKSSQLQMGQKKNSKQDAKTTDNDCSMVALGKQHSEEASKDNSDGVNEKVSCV

Row | SMILES | pKi
1 | COCCC(=O)Nc1ccc(OCCN2CCCC2)c(-c2c(C)ncnc2C)c1 [Compound 235, N-(3-(4,6-dimethylpyrimidin-5-yl)-4-(2-(pyrrolidin-1-yl)ethoxy)phenyl)-3-methoxypropanamide] | 6.68

same assay, conditions: [^3H]5-HT radioligand, membranes of HEK293 cells expressing recombinant 5-HT2A; Ki from IC50 by Cheng-Prusoff; read-out: 5-HT2A serotonin binding Ki value

Row | SMILES | pKi
2 | Cc1ncnc(C)c1-c1cc(NC(=O)c2ccccc2)ccc1OC[C@H]1CCCCN1 [Compound 448, (R)—N-(3-(4,6-dimethylpyrimidin-5-yl)-4-(piperidin-2-ylmethoxy)phenyl)benzamide] | 8.77
3 | Cc1ncnc(C)c1-c1cc(NC(=O)Cc2nccs2)ccc1OCCN1CCCC1 [Compound 294, N-(3-(4,6-dimethylpyrimidin-5-yl)-4-(2-(pyrrolidin-1-yl)ethoxy)phenyl)-2-(thiazol-2-yl)acetamide] | 7.75
4 | CCN(CCF)CCOc1ccc(NC(=O)C2CC2)cc1-c1c(C)ncnc1C [Compound 362, N-[3-(4,6-dimethylpyrimidin-5-yl)-4-[2-[ethyl (2-fluoroethyl)amino]ethoxy]phenyl]cyclopropanecarboxamide] | 7.02
5 | Cc1ncnc(C)c1-c1cc(NC(=O)C2CC2)ccc1OCCN1CCN2C(=O)CCC2C1 (stereo not shown) [Compound 346, N-(3-(4,6-dimethylpyrimidin-5-yl)-4-(2-(6-oxohexahydropyrrolo[1,2-a]pyrazin-2 (1H)-yl)ethoxy)phenyl)cyclopropanecarboxamide] | 7.51
6 | COCCN(C)CCOc1ccc(NC(=O)c2ccccc2)cc1-c1c(C)ncnc1C [Compound 376, N-(3-(4,6-dimethylpyrimidin-5-yl)-4-(2-((2-methoxyethyl) (methyl)amino)ethoxy)phenyl)benzamide] | 7.20
7 | Cc1ncnc(C)c1-c1cc(NC(=O)Cc2ccnn2C)ccc1OCCN1CCCC1 [Compound 227, N-(3-(4,6-dimethylpyrimidin-5-yl)-4-(2-(pyrrolidin-1-yl)ethoxy)phenyl)-2-(1-methyl-1H-pyrazol-5-yl)acetamide] | 7.08
8 | Cc1ncnc(C)c1-c1cc(NC(=O)CNC2CCCC2)ccc1OCCN1CCCC1 [Compound 289, 2-(cyclopentylamino)-N-(3-(4,6-dimethylpyrimidin-5-yl)-4-(2-(pyrrolidin-1-yl)ethoxy)phenyl)acetamide] | 6.91
9 | Cc1ncnc(C)c1-c1cc(NC(=O)C2CC2)ccc1OCCN(C)C1CCC1 [Compound 369, N-(4-(2-(cyclobutyl(methyl)amino)ethoxy)-3-(4,6-dimethylpyrimidin-5-yl)phenyl)cyclopropanecarboxamide] | 7.29
10 | Cc1ncnc(C)c1-c1cc(NC(=O)c2ncccc2F)ccc1OCCN1CCC1 [Compound 330, N-(4-(2-(azetidin-1-yl)ethoxy)-3-(4,6-dimethylpyrimidin-5-yl)phenyl)-3-fluoropicolinamide] | 6.48
11 | Cc1ncnc(C)c1-c1cc(NC(=O)C2CC2)ccc1OCCN1CCN(C(=O)CO)CC1 [Compound 339, N-[3-(4,6-dimethylpyrimidin-5-yl)-4-[2-[4-(2-hydroxyacetyl)piperazin-1-yl]ethoxy]phenyl]cyclopropanecarboxamide] | 7.74
12 | CCCC(=O)Nc1ccc(OC2CNC2)c(-c2c(C)ncnc2C)c1 [Compound 397, N-(4-(azetidin-3-yloxy)-3-(4,6-dimethylpyrimidin-5-yl)phenyl) butyramide] | 8.07
13 | Cc1ncnc(C)c1-c1cc(NC(=O)c2ccn(C)n2)ccc1OCCN1CCCC1 [Compound 203, N-(3-(4,6-dimethylpyrimidin-5-yl)-4-(2-(pyrrolidin-1-yl)ethoxy)phenyl)-1-methyl-1H-pyrazole-3-carboxamide] | 6.11
14 | Cc1ncnc(C)c1-c1cc(NC(=O)Cc2ccccc2)ccc1OCCN1CCCC1 [Compound 251, N-(3-(4,6-dimethylpyrimidin-5-yl)-4-(2-(pyrrolidin-1-yl)ethoxy)phenyl)-2-phenylacetamide] | 8.69
15 | COc1cccc(C(=O)Nc2ccc(OC[C@H]3CCCCN3)c(-c3c(C)ncnc3C)c2)c1 [Compound 450, (R)—N-(3-(4,6-dimethylpyrimidin-5-yl)-4-(piperidin-2-ylmethoxy)phenyl)-3-methoxybenzamide] | 8.99
16 | CCOCC(=O)Nc1ccc(OCCN2CCCC2)c(-c2c(C)ncnc2C)c1 [Compound 234, N-(3-(4,6-dimethylpyrimidin-5-yl)-4-(2-(pyrrolidin-1-yl)ethoxy)phenyl)-2-ethoxyacetamide] | 6.92
17 | Cc1ncnc(C)c1-c1cc(NC(=O)[C@@H]2C[C@@H]2F)ccc1OCCN1CCOCC1 [Compound 392, (1S,2S)—N-[3-(4,6-dimethylpyrimidin-5-yl)-4-(2-morpholinoethoxy)phenyl]-2-fluoro-cyclopropanecarboxamide] | 7.82
18 | Cc1cc(CC(=O)Nc2ccc(OCCN3CCCC3)c(-c3c(C)ncnc3C)c2)on1 [Compound 264, N-(3-(4,6-dimethylpyrimidin-5-yl)-4-(2-(pyrrolidin-1-yl)ethoxy)phenyl)-2-(3-methylisoxazol-5-yl)acetamide] | 8.04
19 | Cc1ncnc(C)c1-c1cc(NC(=O)c2cncc(F)c2)ccc1OCCN1CCCC1 [Compound 207, N-(3-(4,6-dimethylpyrimidin-5-yl)-4-(2-(pyrrolidin-1-yl)ethoxy)phenyl)-5-fluoronicotinamide] | 7.35

Row | SMILES | pKi
20 | Cc1ncnc(C)c1-c1cc(NC(=O)c2ccc(F)cn2)ccc1OCCN1CCCC1 [Compound 210, N-(3-(4,6-dimethylpyrimidin-5-yl)-4-(2-(pyrrolidin-1-yl)ethoxy)phenyl)-5-fluoropicolinamide] | 6.87
21 | CC(=O)N1CCN(CCOc2ccc(NC(=O)C3CC3)cc2-c2c(C)ncnc2C)CC1 [Compound 334, N-[4-[2-(4-acetylpiperazin-1-yl)ethoxy]-3-(4,6-dimethylpyrimidin-5-yl)phenyl]cyclopropanecarboxamide] | 7.75
22 | Cc1ncnc(C)c1-c1cc(NC(=O)C2CC2)ccc1OCCN(C)CCO [Compound 357, N-(3-(4,6-dimethylpyrimidin-5-yl)-4-(2-((2-hydroxyethyl)(methyl)amino)ethoxy)phenyl)cyclopropanecarboxamide] | 7.33
23 | Cc1ncnc(C)c1-c1cc(NC(=O)C2CC2)ccc1OC[C@@H]1CCCN1 [Compound 407, N-[3-(4,6-dimethylpyrimidin-5-yl)-4-[[(2S)-pyrrolidin-2-yl]methoxy]phenyl]cyclopropanecarboxamide] | 6.77
24 | Cc1ncnc(C)c1-c1cc(N(C)C(=O)C2CC2)ccc1OCCN1CCCC1 [Compound 279, N-[3-(4,6-dimethylpyrimidin-5-yl)-4-(2-pyrrolidin-1-ylethoxy)phenyl]-N-methyl-cyclopropanecarboxamide] | 4.18
25 | Cc1ncnc(C)c1-c1cc(NC(=O)c2ccc(C#N)cc2)ccc1OCCN1CCC1 [Compound 326, N-(4-(2-(azetidin-1-yl)ethoxy)-3-(4,6-dimethylpyrimidin-5-yl)phenyl)-4-cyanobenzamide] | 7.86
26 | Cc1ncnc(C)c1-c1cc(NC(=O)C2(O)CC2)ccc1OC[C@H]1CCCCN1 [Compound 440, (R)—N-(3-(4,6-dimethylpyrimidin-5-yl)-4-(piperidin-2-ylmethoxy)phenyl)-1-hydroxycyclopropane-1-carboxamide] | 7.19
27 | COc1cccc(CC(=O)Nc2ccc(OCCN3CCC3)c(-c3c(C)ncnc3C)c2)c1 [Compound 311, N-(4-(2-(azetidin-1-yl)ethoxy)-3-(4,6-dimethylpyrimidin-5-yl)phenyl)-2-(3-methoxyphenyl)acetamide] | 8.52
28 | CCCN(CCOC)CCOc1ccc(NC(=O)C2CC2)cc1-c1c(C)ncnc1C [Compound 356, N-(3-(4,6-dimethylpyrimidin-5-yl)-4-(2-((2-methoxyethyl)(propyl)amino)ethoxy)phenyl)cyclopropanecarboxamide] | 6.27
29 | COCCNCCOc1ccc(NC(=O)c2ccc(F)cc2)cc1-c1c(C)ncnc1C [Compound 374, N-(3-(4,6-dimethylpyrimidin-5-yl)-4-(2-((2-methoxyethyl)amino)ethoxy)phenyl)-4-fluorobenzamide] | 8.46
30 | CCN(CCOC)CCOc1ccc(NC(=O)C2CC2)cc1-c1c(C)ncnc1C [Compound 355, N-(3-(4,6-dimethylpyrimidin-5-yl)-4-(2-(ethyl (2-methoxyethyl)amino)ethoxy)phenyl)cyclopropanecarboxamide] | 6.75
31 | Cc1ncnc(C)c1-c1cc(NC(=O)c2cnsc2)ccc1OC[C@H]1CCCCN1 [Compound 433, (R)—N-(3-(4,6-dimethylpyrimidin-5-yl)-4-(piperidin-2-ylmethoxy)phenyl) isothiazole-4-carboxamide] | 8.00
32 | Cc1ncnc(C)c1-c1cc(NC(=O)[C@@]23COC[C@@H]2C3)ccc1OCCN1CCCC1 [Compound 246, (1R,5R)—N-[3-(4,6-dimethylpyrimidin-5-yl)-4-(2-pyrrolidin-1-ylethoxy)phenyl]-3-oxabicyclo[3.1.0]hexane-1-carboxamide] | 7.79
33 | Cc1ncnc(C)c1-c1cc(NC(=O)Cc2cncc(F)c2)ccc1OCCN1CCCC1 [Compound 277, N-(3-(4,6-dimethylpyrimidin-5-yl)-4-(2-(pyrrolidin-1-yl)ethoxy)phenyl)-2-(5-fluoropyridin-3-yl)acetamide] | 7.48
34 | Cc1ncnc(C)c1-c1cc(NC(=O)C2CC2)ccc1OCCN1CCC2(CC1)CNC2=O [Compound 347, N-(3-(4,6-dimethylpyrimidin-5-yl)-4-(2-(1-oxo-2,7-diazaspiro[3.5]nonan-7-yl)ethoxy)phenyl)cyclopropanecarboxamide] | 7.37
35 | Cc1ncnc(C)c1-c1cc(NC(=O)CCc2cocn2)ccc1OCCN1CCCC1 [Compound 258, N-[3-(4,6-dimethylpyrimidin-5-yl)-4-(2-pyrrolidin-1-ylethoxy)phenyl]-3-oxazol-4-yl-propanamide] | 7.97
36 | Cc1ncnc(C)c1-c1cc(NC(=O)[C@@H]2C[C@H]2F)ccc1OCCN1CCCC1 [Compound 211, (1S,2R)—N-(3-(4,6-dimethylpyrimidin-5-yl)-4-(2-(pyrrolidin-1-yl)ethoxy)phenyl)-2-fluorocyclopropane-1-carboxamide] | 8.68
37 | Cc1noc(CC(=O)Nc2ccc(OCCN3CCCC3)c(-c3c(C)ncnc3C)c2)n1 [Compound 265, N-(3-(4,6-dimethylpyrimidin-5-yl)-4-(2-(pyrrolidin-1-yl)ethoxy)phenyl)-2-(3-methyl-1,2,4-oxadiazol-5-yl)acetamide] | 7.74
